# What was measured:
# [1] = target: T1, Muscarinic acetylcholine receptor M2 (Homo sapiens, UniProt P08172)
# T1 sequence (P08172 whole entry): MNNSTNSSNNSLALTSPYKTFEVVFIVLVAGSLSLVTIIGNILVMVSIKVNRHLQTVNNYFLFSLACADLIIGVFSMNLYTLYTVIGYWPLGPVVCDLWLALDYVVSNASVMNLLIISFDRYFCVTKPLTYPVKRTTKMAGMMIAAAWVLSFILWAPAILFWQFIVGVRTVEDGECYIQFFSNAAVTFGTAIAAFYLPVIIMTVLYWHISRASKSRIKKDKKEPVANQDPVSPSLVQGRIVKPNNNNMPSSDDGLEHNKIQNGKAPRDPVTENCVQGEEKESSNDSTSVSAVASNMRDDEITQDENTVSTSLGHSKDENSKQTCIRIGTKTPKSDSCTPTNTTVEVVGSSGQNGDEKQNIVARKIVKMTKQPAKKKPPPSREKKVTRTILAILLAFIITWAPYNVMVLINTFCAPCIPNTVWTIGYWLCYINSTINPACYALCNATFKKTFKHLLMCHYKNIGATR
# Adenosine receptor A1 = target: T2, Adenosine receptor A1 (Homo sapiens, UniProt P30542)
# T2 sequence (P30542 whole entry): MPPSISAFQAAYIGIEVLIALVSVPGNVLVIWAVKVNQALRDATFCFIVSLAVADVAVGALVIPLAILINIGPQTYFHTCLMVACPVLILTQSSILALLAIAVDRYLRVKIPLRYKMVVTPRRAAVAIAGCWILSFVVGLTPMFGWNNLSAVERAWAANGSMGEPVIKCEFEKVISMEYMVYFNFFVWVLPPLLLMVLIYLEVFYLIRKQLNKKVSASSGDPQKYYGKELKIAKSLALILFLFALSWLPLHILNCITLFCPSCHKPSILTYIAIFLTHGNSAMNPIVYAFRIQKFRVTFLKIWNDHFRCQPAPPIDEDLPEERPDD
# Histamine H1 receptor = Histamine H1 receptor (Homo sapiens, UniProt P35367); type: functional, cell-based
# Histamine H1 receptor, sequence (P35367 whole entry): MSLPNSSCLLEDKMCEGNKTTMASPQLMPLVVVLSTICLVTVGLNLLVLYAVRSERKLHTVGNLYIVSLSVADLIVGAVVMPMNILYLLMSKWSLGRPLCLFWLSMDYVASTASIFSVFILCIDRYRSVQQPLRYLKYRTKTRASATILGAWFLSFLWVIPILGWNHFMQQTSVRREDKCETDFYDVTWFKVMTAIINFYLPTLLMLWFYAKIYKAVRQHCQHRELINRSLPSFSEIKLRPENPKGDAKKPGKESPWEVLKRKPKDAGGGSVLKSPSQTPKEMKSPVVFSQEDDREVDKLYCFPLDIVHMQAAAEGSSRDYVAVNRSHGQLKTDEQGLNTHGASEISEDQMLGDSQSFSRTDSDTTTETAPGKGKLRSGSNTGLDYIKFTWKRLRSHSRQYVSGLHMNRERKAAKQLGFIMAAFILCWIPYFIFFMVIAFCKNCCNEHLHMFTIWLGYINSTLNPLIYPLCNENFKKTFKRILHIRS
# Androgen receptor = target: T3, Androgen receptor (Rattus norvegicus, UniProt P15207); type: functional
# T3 sequence (P15207 whole entry): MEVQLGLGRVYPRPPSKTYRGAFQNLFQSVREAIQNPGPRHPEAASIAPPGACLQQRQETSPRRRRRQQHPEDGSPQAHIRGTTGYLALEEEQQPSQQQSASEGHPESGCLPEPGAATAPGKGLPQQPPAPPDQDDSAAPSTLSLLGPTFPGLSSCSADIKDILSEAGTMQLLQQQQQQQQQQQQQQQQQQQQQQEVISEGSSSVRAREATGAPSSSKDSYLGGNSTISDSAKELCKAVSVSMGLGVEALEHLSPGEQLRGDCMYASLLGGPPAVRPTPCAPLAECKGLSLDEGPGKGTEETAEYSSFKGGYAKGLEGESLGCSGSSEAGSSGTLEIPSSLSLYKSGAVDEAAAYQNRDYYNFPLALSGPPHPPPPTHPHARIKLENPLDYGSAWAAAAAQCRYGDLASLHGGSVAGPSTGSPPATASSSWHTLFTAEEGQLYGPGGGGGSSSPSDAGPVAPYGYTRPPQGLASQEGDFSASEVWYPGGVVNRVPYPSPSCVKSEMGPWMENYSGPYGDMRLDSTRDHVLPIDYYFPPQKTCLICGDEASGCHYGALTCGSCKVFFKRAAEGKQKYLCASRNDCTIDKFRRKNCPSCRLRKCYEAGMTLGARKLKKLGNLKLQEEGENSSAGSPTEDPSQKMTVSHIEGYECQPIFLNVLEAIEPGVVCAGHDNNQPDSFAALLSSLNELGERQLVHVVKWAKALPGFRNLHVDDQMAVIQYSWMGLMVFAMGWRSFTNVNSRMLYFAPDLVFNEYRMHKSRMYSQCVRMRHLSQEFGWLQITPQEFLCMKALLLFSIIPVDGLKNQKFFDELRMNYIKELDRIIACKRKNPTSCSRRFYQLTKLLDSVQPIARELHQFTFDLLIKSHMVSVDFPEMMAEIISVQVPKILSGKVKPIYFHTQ
# [2] = target: T4, Peroxisome proliferator-activated receptor gamma (Homo sapiens, UniProt P37231); type: functional
# T4 sequence (P37231 whole entry): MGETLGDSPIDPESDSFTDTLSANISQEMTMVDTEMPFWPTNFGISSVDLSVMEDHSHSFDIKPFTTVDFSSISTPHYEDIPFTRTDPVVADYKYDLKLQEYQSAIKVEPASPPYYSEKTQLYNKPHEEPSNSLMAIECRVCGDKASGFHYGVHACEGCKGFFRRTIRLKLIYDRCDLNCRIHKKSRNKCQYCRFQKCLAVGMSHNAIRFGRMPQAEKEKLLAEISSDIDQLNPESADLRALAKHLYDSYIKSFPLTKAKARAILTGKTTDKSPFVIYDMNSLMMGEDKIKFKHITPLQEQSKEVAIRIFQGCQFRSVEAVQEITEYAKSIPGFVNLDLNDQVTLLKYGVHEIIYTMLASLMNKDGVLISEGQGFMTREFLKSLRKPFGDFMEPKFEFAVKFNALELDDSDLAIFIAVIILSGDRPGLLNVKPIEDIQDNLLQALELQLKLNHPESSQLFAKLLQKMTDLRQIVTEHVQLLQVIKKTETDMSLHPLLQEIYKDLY
# D(4) dopamine receptor = target: T5, D(4) dopamine receptor (Homo sapiens, UniProt P21917)
# T5 sequence (P21917 whole entry): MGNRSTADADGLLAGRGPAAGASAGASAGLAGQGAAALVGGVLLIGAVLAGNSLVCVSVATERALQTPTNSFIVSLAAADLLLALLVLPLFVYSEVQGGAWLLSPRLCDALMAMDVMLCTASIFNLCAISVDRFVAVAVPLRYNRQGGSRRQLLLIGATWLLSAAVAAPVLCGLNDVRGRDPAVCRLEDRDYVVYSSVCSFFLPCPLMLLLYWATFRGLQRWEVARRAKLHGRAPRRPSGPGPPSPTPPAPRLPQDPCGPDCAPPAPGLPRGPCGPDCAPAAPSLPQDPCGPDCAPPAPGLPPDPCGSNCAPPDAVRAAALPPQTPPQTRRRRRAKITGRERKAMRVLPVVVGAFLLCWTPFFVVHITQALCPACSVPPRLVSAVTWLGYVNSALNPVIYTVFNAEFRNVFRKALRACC
# Note: assay procedure not described here.
smiles,measurement,setting,value
CCC[C@H](NC(=O)[C@@H]1[C@H]2CCC[C@H]2CN1C(=O)[C@@H](NC(=O)[C@@H](NC(=O)c1cnccn1)C1CCCCC1)C(C)(C)C)C(=O)C(=O)NC1CC1,AC50,[1],> 10 µM
CCOC(=O)[C@H](CCc1ccccc1)N[C@@H](C)C(=O)N(CC(=O)O)C1Cc2ccccc2C1,AC50,Adenosine receptor A1,> 30 µM
CC(=O)N[C@@H](CS)C(=O)O [ACETYLCYSTEINE],AC50,Histamine H1 receptor,> 30 µM
C=CCNc1nc(NCC=C)nc(N2CCN(C(c3ccc(F)cc3)c3ccc(F)cc3)CC2)n1 [ALMITRINE],AC50,Androgen receptor,> 30 µM
CN1CCC(=C2c3ccccc3CCc3cccnc32)CC1 [AZATADINE],AC50,Histamine H1 receptor,0.0665 µM
same,AC50,[1],0.064 µM
CC(C)COCC(CN(Cc1ccccc1)c1ccccc1)N1CCCC1 (stereo unspecified) [BEPRIDIL],AC50,[2],> 30 µM
C/N=C(\NC)NCc1ccccc1 [BETHANIDINE],AC50,[2],> 30 µM
CCC(C)C1(CC)C(=O)NC(=O)NC1=O (stereo unspecified) [BUTABARBITAL],AC50,[2],> 30 µM
same,AC50,Androgen receptor,> 30 µM
COCC1=C(C(=O)O)N2C(=O)[C@@H](NC(=O)/C(=N\OC)c3csc(N)n3)[C@H]2SC1 [CEFPODOXIME],AC50,Androgen receptor,> 30 µM
CC(=O)O[C@]1(C(C)=O)CC[C@H]2[C@@H]3C=C(Cl)C4=CC(=O)CC[C@]4(C)[C@H]3CC[C@@]21C [CHLORMADINONE ACETATE],AC50,Adenosine receptor A1,> 30 µM
O=C(O)c1cn(C2CC2)c2cc(N3CCNCC3)c(F)cc2c1=O [CIPROFLOXACIN],AC50,Adenosine receptor A1,> 30 µM
CCN(CC)C(=S)S [DITIOCARB],AC50,Adenosine receptor A1,> 30 µM
CC(CCc1ccc(O)cc1)NCCc1ccc(O)c(O)c1 (stereo unspecified) [DOBUTAMINE],AC50,D(4) dopamine receptor,2.42 µM
same,AC50,[1],> 10 µM
C=C1CC[C@H](O)C/C1=C/C=C1\CCC[C@]2(C)[C@@H]([C@H](C)/C=C/[C@H](C)C(C)C)CC[C@@H]12 [ERGOCALCIFEROL],AC50,Adenosine receptor A1,> 30 µM
CCC(=O)O[C@]1(C(=O)SCF)[C@H](C)C[C@H]2[C@@H]3C[C@H](F)C4=CC(=O)C=C[C@]4(C)[C@@]3(F)[C@@H](O)C[C@@]21C [FLUTICASONE PROPIONATE],AC50,D(4) dopamine receptor,> 10 µM
same,AC50,[1],> 10 µM
C[C@]12CC[C@@H]3c4ccc(O)cc4C[C@@H](CCCCCCCCC[S+]([O-])CCCC(F)(F)C(F)(F)F)[C@H]3[C@@H]1CC[C@@H]2O (stereo partly specified) [FULVESTRANT],AC50,Histamine H1 receptor,> 30 µM
same,AC50,[2],14 µM
same,AC50,Androgen receptor,> 30 µM
Cc1cnc(C(=O)NCCc2ccc(S(=O)(=O)NC(=O)NC3CCCCC3)cc2)cn1 [GLIPIZIDE],AC50,D(4) dopamine receptor,> 10 µM
same,AC50,Adenosine receptor A1,> 30 µM
CC(C)NCC(O)c1ccc(O)c(O)c1 (stereo unspecified) [ISOPROTERENOL],AC50,D(4) dopamine receptor,> 10 µM
same,AC50,[1],> 10 µM
Oc1ccc2c(c1)CC[C@H](c1ccccc1)[C@@H]2c1ccc(OCCN2CCCC2)cc1 [LASOFOXIFENE],AC50,[2],18 µM
same,AC50,Androgen receptor,> 30 µM
CN1CCN(C2=Nc3ccccc3Oc3ccc(Cl)cc32)CC1 [LOXAPINE],AC50,D(4) dopamine receptor,0.0144 µM
C[C@H](Cc1ccc(O)c(O)c1)[C@@H](C)Cc1ccc(O)c(O)c1 [MASOPROCOL],AC50,Histamine H1 receptor,23 µM
same,AC50,[2],0.4 µM
OC1(c2ccc(Cl)cc2)c2ccccc2C2=NCCN21 (stereo unspecified) [MAZINDOL],AC50,D(4) dopamine receptor,> 10 µM
same,AC50,[1],> 10 µM
same,AC50,Androgen receptor,> 30 µM
CC12CC3CC(C)(C1)CC(N)(C3)C2 [MEMANTINE],AC50,Histamine H1 receptor,> 30 µM
CN(C)CCCNc1c2ccccc2nc2cccc([N+](=O)[O-])c12 [NITRACRINE],AC50,Androgen receptor,> 30 µM
CCOC(=O)C1=C(C)NC(C)=C(C(=O)OC)C1c1cccc([N+](=O)[O-])c1 (stereo unspecified) [NITRENDIPINE],AC50,[1],> 10 µM
O=[N+]([O-])c1ccc(O)c2ncccc12 [NITROXOLINE],AC50,Adenosine receptor A1,> 30 µM
[H]/N=C(/N)N/C(=N/[H])NCCc1ccccc1 [PHENFORMIN],AC50,[1],> 10 µM
CC(N)C(O)c1ccccc1 (stereo unspecified) [PHENYLPROPANOLAMINE],AC50,D(4) dopamine receptor,> 10 µM
same,AC50,[1],> 10 µM
Clc1ccc2c(N3CCN(CCCN4CCN(c5ccnc6cc(Cl)ccc56)CC4)CC3)ccnc2c1 [PIPERAQUINE],AC50,Androgen receptor,> 30 µM
CC[C@@H]([C@H](C)O)n1ncn(-c2ccc(N3CCN(c4ccc(OC[C@@H]5CO[C@@](Cn6cncn6)(c6ccc(F)cc6F)C5)cc4)CC3)cc2)c1=O [POSACONAZOLE],AC50,Adenosine receptor A1,> 30 µM
Cc1cccc(N2CC(CO)OC2=O)c1 (stereo unspecified) [TOLOXATONE],AC50,Androgen receptor,> 30 µM
CCC(C)C(CC)C(N)=O (stereo unspecified) [VALNOCTAMIDE],AC50,Histamine H1 receptor,> 30 µM
same,AC50,Androgen receptor,> 30 µM

# From ChEMBL document CHEMBL5291721, “A preclinical secondary pharmacology resource illuminates target-adverse drug reaction associations of marketed drugs” (Nat Commun, 2023)
